Experimental findings from patent publication US7838508B2, “4′-thio-L-xyloy furanosyl nucleosides, precursors thereof, preparation and use thereof” (priority 2000, dated 2010) are described below.

In one series the test system is SNB-7 (CNS). In words: Cell culture cytotoxicity, SNB-7 (CNS). The class given is cell-based, human. As to the method:
(§1) The cell culture cytotoxicity of compounds of the present invention was determined against several different human cancel cell lines (see Table 1 below) and for antiviral activity (see Table 2 below).

The test system of another series is CAKI-1 (renal). In words: Cell culture cytotoxicity, CAKI-1 (renal). The class given is cell-based, human. The protocol:
as §1

In the next series the test system is NCI-H23 (lung). In words: Cell culture cytotoxicity, NCI-H23 (lung). The class given is cell-based, human. As to the method: as §1
The subject of the next series is SK-MEL-28 (melanoma). Nature of the series: Cell culture cytotoxicity, SK-MEL-28 (melanoma). The class given is cell-based, human. As to the method: as §1
In the next series the test system is DLD-1 (colon). In words: Cell culture cytotoxicity, DLD-1 (colon). The class given is cell-based, human. The protocol: as §1
A further series has as its system CCRF-CEM (leukemia). In words: Cell culture cytotoxicity, CCRF-CEM (leukemia). The class given is cell-based, human. To be noted: read-out: Cytotoxicity IC50, CCRF-CEM (leukemia). As to the method:
as §1

The nature of series [1]: Toxicity (cell viability) in antiviral (CMV) test. The class given is cell-based. Particulars: Antiviral (CMV) data; read-out: TC50: Toxic Concentration at 50% cell viability. As to the method:
as §1

The test system of a further series is CMV. In words: Antiviral (CMV) activity. Particulars: for IC50: Human betaherpesvirus 5, Antiviral (CMV) data, read-out: IC50: 50% Inhibitory Concentration of CMV; for TI: Therapeutic Index (TC50/IC50): TC50/IC50, CMV. In kind it is cell-based. As to the method: as §1
The mark [2] stands for this setting: SNB-7 human CNS cancer cell line, read-out: Cytotoxicity IC50, SNB-7 (CNS).
Setting [3] is: CAKI-1 human renal cancer cell line, read-out: Cytotoxicity IC50, CAKI-1 (renal).
The mark [4] stands for this setting: NCI-H23 human lung cancer cell line, read-out: Cytotoxicity IC50, NCI-H23 (lung).
[5] abbreviates: SK-MEL-28 human melanoma cell line, read-out: Cytotoxicity IC50, SK-MEL-28 (melanoma).
[6] abbreviates: DLD-1 human colon cancer cell line, read-out: Cytotoxicity IC50, DLD-1 (colon).
Setting [7] is: CCRF-CEM human leukemia cell line.

Like-named read-outs stand apart in the source and are kept apart here. A value given as a limit tells only on which side of the number the result lay.

With “1-(4′-thio-α,β-L-Xylofuranosyl)thymine [Compound 17αβ]”, the IC50 in the series on SNB-7 (CNS) (setting [2]), in the series with CAKI-1 (renal) (setting [3]), with NCI-H23 (lung) (setting [4]), with SK-MEL-28 (melanoma) (setting [5]), in the series on DLD-1 (colon) (setting [6]) and in the series with CCRF-CEM (leukemia) (setting [7]) was more than 100 µM in each case.

`Nc1nc(Cl)nc2c1ncn2[C@@H]1S[C@@H](CO)[C@@H](O)[C@@H]1O` [Compound 9α, 2-Chloro-9-(4-thio-α-L-xylofuranosyl)adenine]: the IC50 in the series with SNB-7 (CNS) (setting [2]), in the series with CAKI-1 (renal) (setting [3]), in the series on NCI-H23 (lung) (setting [4]), in the series with SK-MEL-28 (melanoma) (setting [5]), in the series on DLD-1 (colon) (setting [6]) and in the series with CCRF-CEM (leukemia) (setting [7]) was more than 100 µM each time.

In the case of `Nc1nc(Cl)nc2c1ncn2[C@H]1S[C@@H](CO)[C@@H](O)[C@@H]1O` [Compound 9β, 2-Chloro-9-(4-thio-β-L-xylofuranosyl)adenine], the IC50 with SNB-7 (CNS) (setting [2]), in the series with CAKI-1 (renal) (setting [3]), with NCI-H23 (lung) (setting [4]), in the series with SK-MEL-28 (melanoma) (setting [5]), in the series with DLD-1 (colon) (setting [6]) and in the series on CCRF-CEM (leukemia) (setting [7]) was more than 100 µM throughout.

As for `Nc1nc(N)c2ncn([C@@H]3S[C@@H](CO)[C@@H](O)[C@@H]3O)c2n1` [Compound 12α, 9-(4-Thio-α-L-Xylofuranosyl)-9H-purine-2,6-diamine], the IC50 in the series with SNB-7 (CNS) (setting [2]), in the series on CAKI-1 (renal) (setting [3]), with NCI-H23 (lung) (setting [4]), in the series with SK-MEL-28 (melanoma) (setting [5]), in the series on DLD-1 (colon) (setting [6]) and with CCRF-CEM (leukemia) (setting [7]) was more than 100 µM each time. The IC50 in the series with CMV was 0.051 µM. For the same molecule, the CC50 in series [1] is more than 10 µM. For the same molecule, the “TI: Therapeutic Index (TC50/IC50)” value with CMV was more than 196.1.

On to `Nc1nc(N)c2ncn([C@H]3S[C@@H](CO)[C@@H](O)[C@@H]3O)c2n1` [Compound 12β, 9-(4-Thio-β-L-Xylofuranosyl)-9H-purine-2,6-diamine], for which the IC50 in the series on SNB-7 (CNS) (setting [2]), in the series on CAKI-1 (renal) (setting [3]), in the series on NCI-H23 (lung) (setting [4]), in the series on SK-MEL-28 (melanoma) (setting [5]), in the series on DLD-1 (colon) (setting [6]) and with CCRF-CEM (leukemia) (setting [7]) was more than 100 µM throughout.

On to `Nc1nc2c(ncn2[C@H]2S[C@@H](CO)[C@@H](O)[C@@H]2O)c(=O)[nH]1` [Compound 13, 9-(4-Thio-β-L-xylofuranosyl)guanine], for which the IC50 in the series on SNB-7 (CNS) (setting [2]), in the series with CAKI-1 (renal) (setting [3]), in the series on NCI-H23 (lung) (setting [4]), in the series with SK-MEL-28 (melanoma) (setting [5]), with DLD-1 (colon) (setting [6]) and with CCRF-CEM (leukemia) (setting [7]) was more than 100 µM throughout.

Take `Nc1ccn([C@@H]2S[C@@H](CO)[C@@H](O)[C@@H]2O)c(=O)n1` [Compound 15α, 1-(4-thio-α-L-Xylofuranosyl)cytosine]: the IC50 with SNB-7 (CNS) (setting [2]) is more than 100 µM; with CAKI-1 (renal) (setting [3]), more than 100 µM; in the series with NCI-H23 (lung) (setting [4]), more than 100 µM; in the series with SK-MEL-28 (melanoma) (setting [5]) it was more than 100 µM; with DLD-1 (colon) (setting [6]), more than 100 µM; with CCRF-CEM (leukemia) (setting [7]) it was 8 µM. Further, in the series on CMV, the IC50 amounted to 0.026 µM. The CC50 in series [1] was more than 10 µM. Besides, in the series with CMV, the “TI: Therapeutic Index (TC50/IC50)” value is recorded as more than 384.6.

In the case of `Nc1ccn([C@H]2S[C@@H](CO)[C@@H](O)[C@@H]2O)c(=O)n1` [Compound 15β, 1-(4-thio-β-L-Xylofuranosyl)cytosine], the IC50 was 90 µM in the series on SNB-7 (CNS) (setting [2]); more than 100 µM with CAKI-1 (renal) (setting [3]); more than 100 µM with NCI-H23 (lung) (setting [4]); more than 100 µM with SK-MEL-28 (melanoma) (setting [5]); more than 100 µM with DLD-1 (colon) (setting [6]); 11 µM in the series with CCRF-CEM (leukemia) (setting [7]). Also, the IC50 in the series with CMV is 0.022 µM. The CC50 in series [1] was more than 10 µM. Further, the “TI: Therapeutic Index (TC50/IC50)” value in the series on CMV was more than 454.5.

For the molecule `O=c1ccn(C2S[C@@H](CO)[C@@H](O)[C@@H]2O)c(=O)[nH]1` (stereo partly drawn) [Compound 19αβ, 1-(4-thioα,β-L-Xylofuranosyl)uracil], the IC50 with SNB-7 (CNS) (Homo sapiens, SNB-7, read-out: Cytotoxicity IC50, SNB-7 (CNS)) was more than 100 µM; with CAKI-1 (renal) (Homo sapiens, CAKI-1, read-out: Cytotoxicity IC50, CAKI-1 (renal)) it was more than 100 µM; in the series with NCI-H23 (lung) (Homo sapiens, NCI-H23, read-out: Cytotoxicity IC50, NCI-H23 (lung)), more than 100 µM; with SK-MEL-28 (melanoma) (Homo sapiens, SK-MEL-28, read-out: Cytotoxicity IC50, SK-MEL-28 (melanoma)), more than 100 µM; with DLD-1 (colon) (Homo sapiens, DLD-1, read-out: Cytotoxicity IC50, DLD-1 (colon)), more than 100 µM; with CCRF-CEM (leukemia) (Homo sapiens, CCRF-CEM), more than 100 µM.

Take `Nc1nc(O)c2ncn(COC(CO)CO)c2n1` [Ganciclovir, reference compound]: the CC50 in series [1] was more than 10 µM. In the series on CMV, the IC50 was 8.6 µM and the “TI: Therapeutic Index (TC50/IC50)” value is on record as more than 11.6.
